Reference: ChEMBL document CHEMBL1151068, “Rollimembrin, a novel acetogenin inhibitor of mammalian mitochondrial complex I” (Bioorg Med Chem Lett, 1997)

Target: Mitochondrial complex I; NADH oxidoreductase (Bos taurus, UniProt P25708+P52505)
Assay: Concentration required for the inhibition of NADH oxidase in submitochondrial particles from beef heart
Assay type: protein-complex assay

Mitochondrial complex I; NADH oxidoreductase, sequence (P25708 21-464 limits assumed, other chains not shown): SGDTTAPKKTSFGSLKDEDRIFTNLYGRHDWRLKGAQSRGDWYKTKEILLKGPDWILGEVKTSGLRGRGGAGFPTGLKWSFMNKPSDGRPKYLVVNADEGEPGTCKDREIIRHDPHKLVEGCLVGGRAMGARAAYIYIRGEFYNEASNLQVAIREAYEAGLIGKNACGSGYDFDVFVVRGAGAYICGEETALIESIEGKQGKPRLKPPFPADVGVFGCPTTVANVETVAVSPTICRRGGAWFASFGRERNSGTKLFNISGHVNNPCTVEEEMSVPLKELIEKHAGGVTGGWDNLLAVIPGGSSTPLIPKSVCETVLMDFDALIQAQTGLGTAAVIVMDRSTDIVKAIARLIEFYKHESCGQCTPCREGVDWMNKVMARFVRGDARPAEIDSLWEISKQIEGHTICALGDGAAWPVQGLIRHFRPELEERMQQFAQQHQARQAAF

Row | SMILES | IC50 [nM]
1 | CCCCCCCCCC[C@H](O)[C@H]1CC[C@@H]([C@@H]2CC[C@H]([C@H](O)CCCCCCCCCCCCC3=C[C@@H](C)OC3=O)O2)O1 | 0.58
2 | CCCCCCCCCC[C@H](O)[C@H]1CC[C@@H]([C@@H]2CC[C@H]([C@H](O)CCCCCCCCCC[C@@H](O)CC3=C[C@@H](C)OC3=O)O2)O1 | 0.58
3 | CCCCCCCCCC[C@H](O)[C@H]1CC[C@@H]([C@@H]2CC[C@H]([C@H](O)CCCCCCCC[C@@H](O)CC3=C[C@@H](C)OC3=O)O2)O1 | 0.33
